Among the data in patent US20050197350A1, “Novel quinoline, tetrahydroquinazoline, and pyrimidine derivatives and methods of treatment related to the use thereof” (TAISHO PHARMACEUTICAL CO., LTD., priority 2003, published 2005) are class values, retold here.

Each structure is given as a SMILES string.

The first experiment concerns MCH receptors. Description: MCH receptor activity class (method not given). To be noted: MCH receptor activity class 1-3 (percent of control at 10^-7 M or IC50).
With `CN(C)c1nc(N[C@H]2CC[C@@H](CNC(=O)Nc3c(Cl)cc(Cl)cc3Cl)CC2)nc2c1CCCC2` [compound 2461], the class is 1 (Class 1: The value of percent of control at 10^−7 M was less than 40% or the value of IC50 was less than 50 nM.).

The same experiment, now with this note: MCH receptor; class by percent of control at 10^-7 M or IC50.
`CCC(C(=O)NC[C@H]1CC[C@@H](Nc2cc(N(C)C)c3ccccc3n2)CC1)c1ccccc1` (relative stereo) [compound 193]: the class was 3 (Class 3 The value of percent of control at 10^−7 M was more than 60% or the value of IC50 was more than 200 nM.).

Regarding `COc1ccc(NC(=S)N[C@H]2CC[C@@H](Nc3nc4c(c(N(C)C)n3)CCCC4)CC2)c([N+](=O)[O-])c1` [compound 2017], the class was 3 (Class 3 The value of percent of control at 10^−7 M was more than 60% or the value of IC50 was more than 200 nM.). Consider `CN(C)c1cc(N[C@H]2CC[C@@H](CNC(=O)c3ccccc3SC(F)F)CC2)nc2ccccc12` [compound 209], for which the class is given as 3 (Class 3 The value of percent of control at 10^−7 M was more than 60% or the value of IC50 was more than 200 nM.).

Staying with this experiment, now noted: activity class 1-3: percent of control at 10^-7 M or IC50.
For `CN(C)c1cc(N[C@H]2CC[C@@H](NC(=O)Oc3ccc4ccccc4c3)CC2)nc2ccccc12` [compound 1549], the class is on record as 3 (Class 3 The value of percent of control at 10^−7 M was more than 60% or the value of IC50 was more than 200 nM.).

Consider `CN(C)c1nc(N[C@H]2CC[C@@H](NC(=O)OCc3ccc([N+](=O)[O-])cc3)CC2)nc2c1CCCC2` [compound 1588], for which the class is recorded as 3 (Class 3 The value of percent of control at 10^−7 M was more than 60% or the value of IC50 was more than 200 nM.).

The same experiment, now with this note: class 1-3 by percent of control at 10^-7 M or IC50.
Turning to `COc1cccc(CC(=O)N[C@H]2CC[C@@H](Nc3nc4c(c(N(C)C)n3)CCCC4)CC2)c1` [compound 503], the class is reported as 2 (Class 2: The value of percent of control at 10^−7 M was from 40% to 60% or the value of IC′50 was from 50 nM to 200 nM.). The same measure, in the same setting: under `CCC(C(=O)N[C@H]1CC[C@@H](Nc2nc3c(c(N(C)C)n2)CCCC3)CC1)c1ccccc1` (relative stereo) [compound 502] stands 3 (Class 3 The value of percent of control at 10^−7 M was more than 60% or the value of IC50 was more than 200 nM.).

Still in this experiment, the particulars now being: class by percent of control at 10^-7 M or IC50.
With `Cc1cc2occ(CN[C@H]3CC[C@@H](Nc4nc5c(c(N(C)C)n4)CCCC5)CC3)c(=O)c2cc1Cl` [compound 1349], the class is recorded as 3 (Class 3 The value of percent of control at 10^−7 M was more than 60% or the value of IC50 was more than 200 nM.). Consider `CCc1cccc(CC)c1NC(=O)N[C@H]1CC[C@@H](Nc2nccc(N(C)C)n2)CC1` [compound 2192], for which the class is 3 (Class 3 The value of percent of control at 10^−7 M was more than 60% or the value of IC50 was more than 200 nM.).

Take `CCOc1ccc(CNC[C@H]2CC[C@@H](Nc3cc(N(C)C)c4ccccc4n3)CC2)c(OCC)c1` [compound 1170]: the class is on record as 2 (Class 2: The value of percent of control at 10^−7 M was from 40% to 60% or the value of IC′50 was from 50 nM to 200 nM.). With `CN(C)c1cc(N[C@H]2CC[C@@H](NC(=O)Cc3cccc(Oc4ccccc4)c3)CC2)nc2ccccc12` [compound 727], the class is reported as 3 (Class 3 The value of percent of control at 10^−7 M was more than 60% or the value of IC50 was more than 200 nM.). `CC(NC(=O)NC1CCC(Nc2nc3c(c(N(C)C)n2)CCCC3)CC1)c1cccc2ccccc12` (centres unmarked) [compound 1842]: the class is recorded as 3 (Class 3 The value of percent of control at 10^−7 M was more than 60% or the value of IC50 was more than 200 nM.). Same read-out and setting: under `CCOc1cc(CNC[C@H]2CC[C@@H](Nc3nc4c(c(N(C)C)n3)CCCC4)CC2)ccc1OC` [compound 1376] stands 1 (Class 1: The value of percent of control at 10^−7 M was less than 40% or the value of IC50 was less than 50 nM.). As for `CCOC(=O)CNC(=O)N[C@H]1CC[C@@H](Nc2nc3c(c(N(C)C)n2)CCCC3)CC1` [compound 1822], the class is reported as 3 (Class 3 The value of percent of control at 10^−7 M was more than 60% or the value of IC50 was more than 200 nM.). In the case of `CN(C)c1cc(N[C@H]2CC[C@@H](NC(=S)Nc3ccc(Br)cc3)CC2)nc2ccccc12` [compound 2167], the class is reported as 3 (Class 3 The value of percent of control at 10^−7 M was more than 60% or the value of IC50 was more than 200 nM.).

Take `CN(C)c1ccnc(N[C@H]2CC[C@@H](NC(=O)c3ccccc3Cc3ccccc3)CC2)n1` [compound 824]: the class was 3 (Class 3 The value of percent of control at 10^−7 M was more than 60% or the value of IC50 was more than 200 nM.). The same measure, in the same setting: under `CCOc1ccc(Br)cc1CNC[C@H]1CC[C@@H](Nc2nc3c(c(N(C)C)n2)CCCC3)CC1` [compound 1408] stands 3 (Class 3 The value of percent of control at 10^−7 M was more than 60% or the value of IC50 was more than 200 nM.); under `COc1cccc(CNC(=S)N[C@H]2CC[C@@H](Nc3nc4c(c(N(C)C)n3)CCCC4)CC2)c1OC` [compound 1768], 3 (Class 3 The value of percent of control at 10^−7 M was more than 60% or the value of IC50 was more than 200 nM.).

Take `CN(C)c1nc(N[C@H]2CC[C@@H](CNC(=O)c3c(F)cccc3Cl)CC2)nc2c1CCCC2` [compound 667]: the class is listed as 2 (Class 2: The value of percent of control at 10^−7 M was from 40% to 60% or the value of IC′50 was from 50 nM to 200 nM.). Same read-out and setting: under `COc1ccc(NC(=S)N[C@H]2CC[C@@H](Nc3cc(N(C)C)c4ccccc4n3)CC2)c(OC)c1` [compound 2170] stands 2 (Class 2: The value of percent of control at 10^−7 M was from 40% to 60% or the value of IC′50 was from 50 nM to 200 nM.).

The experiment is the same for the next values; noted with them: class by percent of control at 10^−7 M or IC50.
`Cc1cnc(N[C@H]2CC[C@@H](C(=O)N[C@H](C)c3ccccc3)CC2)nc1N(C)C` [compound 2771, cis-4-{[4-(dimethylamino)-5-methylpyrimidin-2-yl]amino}-N-[(1R)-1-phenylethyl]cyclohexanecarboxamide]: the class is on record as 2 (Class 2: The value of percent of control at 10^−7 M was from 40% to 60% or the value of IC′50 was from 50 nM to 200 nM.). For `Cc1cnc(N[C@H]2CC[C@@H](CNC(=O)c3cccnc3Oc3ccccc3F)C2)nc1N(C)C` [compound 3015], the class was 1 (Class 1: The value of percent of control at 10^−7 M was less than 40% or the value of IC50 was less than 50 nM.). Same read-out and setting: under `Cc1cc(N(C)C)nc(N[C@H]2CC[C@@H](NC(=O)c3cc(Cl)cc(Cl)c3)CC2)n1` [compound 2966, 3,5-dichloro-N-(cis-4-{[4-(dimethylamino)-6-methylpyrimidin-2-yl]amino}cyclohexyl)benzamide] stands 1 (Class 1: The value of percent of control at 10^−7 M was less than 40% or the value of IC50 was less than 50 nM.); under `Cc1cnc(N[C@H]2CC[C@@H](CNC(=O)c3cccc(OC(F)(F)F)c3)CC2)nc1N(C)C` [compound 2699, N-[(cis-4-{[4-(dimethylamino)-5-methylpyrimidin-2-yl]amino}cyclohexyl)methyl]-3-(trifluoromethoxy)benzamide], 2 (Class 2: The value of percent of control at 10^−7 M was from 40% to 60% or the value of IC′50 was from 50 nM to 200 nM.); under `Cc1cc(N(C)C)nc(NC[C@H]2CC[C@@H](NC(=O)c3ccc(Br)c(C)c3)CC2)n1` [compound 2745, 4-bromo-N-[cis-4-({[4-(dimethylamino)-6-methylpyrimidin-2-yl]amino}methyl)cyclohexyl]-3-methylbenzamide], 2 (Class 2: The value of percent of control at 10^−7 M was from 40% to 60% or the value of IC′50 was from 50 nM to 200 nM.).
